In US20140050779A1, “[…]-2 INHIBITORS AND USES THEREOF” (SINGAPORE HEALTH SERVICES PTE. LTD., priority 2011, published 2014):
Entries after “also recorded” stand apart in the source; their conditions may differ.

How the values were obtained:
Type in all cases: cell-based
cultured SF cells = test: effect of TG-2 inhibitors on cultured scleral fibroblast growth (XCELLigence)
Method: (§1) To test the effect of TG-2 inhibitors on cultured scleral fibroblast growth, cultured SF cells at passage 4 were treated with TG-2 inhibitors at baseline, 0.1, 1, 10 and 100 μM for 5 days. The SF cell growth was monitored by XCELLigence cell impedance.

human SF = test: as above
Method: as §1

mouse SF = test: as above
Method: as §1

TG-1 [1] = test: Western blot of TG proteins in human scleral fibroblasts after muscarinic agents; conditions: 0.01-10 μM for 5 days
TG-3 [2] = test: as above; conditions: 0.01-10 μM for 5 days
TG-5 [3] = test: as above; conditions: 0.01-10 μM for 5 days
TG-1 [4] = test: Western blot of TG proteins in mouse scleral fibroblasts after muscarinic agents; conditions: 0.01-10 μM for 5 days
Method: (§2) All cells used in examples described herein were between passages 2-4. Passaged cells were plated at a concentration of 2×10^5/mL into 6 well plates containing DMEM with 10% FBS. The cells were seen to attach to the bottom of the culture wells after 4 hours. Old media was removed from wells and 1 mL of drug was added with fresh full medium and incubated at 37° C. Fresh drugs were replaced daily consecutively for the next 5 days to avoid oxidation. The drugs/media was removed and wells were washed twice with 1×PBS. 200 μl of RIPA lysis buffer was added per well and incubated for 5 minutes and cells were scrapped into an eppendorf tube. The cells were stored at −20° C. until sonication. The cells were sonicated on ice thrice at 20% output power for 5 seconds each time and rested 1 minute in between each turn. Cell debris was spun down at 12000 rpm for 20 minutes. The supernatant was poured into a new eppendorf tube and cell concentrations were determined using the Dc Protein assay Kit (Bio-Rad, MA). Passaged cells were plated at a concentration of 1×10^5 into 6 well plates containing DMEM with 10% FBS. The cells were seen to attach to the bottom of the culture wells after 4 hours. Freshly prepared muscarinic agents' at base line, 0.1, 1, 10 and 100 μM concentrations were added for 5 days (Table 2). The culture medium was removed and fresh medium containing the same muscarinic drug added every day to avoid drug changes such as atropine oxidation. Cell lysate was collected for relative quantitative (q) PCR and protein analysis at day 5.
(§3) The cells were lysed by sonification in 1×RIPA lysis buffer (santa cruz biotechnology, Sc-24948) with 10 μl PMSF solution, 10 μl sodium orthovanadate solution and 20 μl protease inhibitor cocktail solution. After centrifugation at 20,000×g at 4° C. for 20 minutes, and the supernatant collected. The protein content in the supernatants was measured using the DC Protein Assay kit (Bio-Rad, MA) following the manufacturer's instructions. Samples were stored at −80° C. until assayed.
(§4) The mouse and human scleral fibroblasts were treated with atropine or carbachol at 0.01, 0.1, 1, 5 and 10 μM concentrations for 5 days. Following 5 days of treatment, the total cellular protein was extracted from these cells and TG proteins detected via Western blot analysis.
(§5) Human and, mouse scleral fibroblast proteins in the supernatant were separated by SDS-PAGE, transferred to nitrocellulose membranes, blocked in 5% BSA in TBST (10 mM Tris-HCl [pH 8.0], 150 mM NaCl, and […] Tween-20) for 2 hours at room temperature, and incubated with the same anti-TG-2 antibody described herein at a dilution of 1:1000 and anti β-tubulin antibodies used as a positive control, for 1 hour at room temperature. The membranes were washed 3 times in TBST and incubated with HRP-conjugated secondary antibody (Chemicon International) at a dilution of 1:2500 for 1 hour at room temperature. Immunoreactive bands were visualized using the enhanced chemiluminescence method (GE Healthcare, Buckinghamshire, UK). The membrane was wrapped in plastic and placed against an X-ray film to expose for an appropriate length of time (30 seconds-5 minutes).

TG-2 [5] = test: as above; conditions: 0.01-10 μM for 5 days, Western blot
Method: as §2, §3, §4, §5

TG-3 [6] = test: as above; conditions: 0.01-10 μM for 5 days
Method: as §2, §3, §4, §5

TG-5 [7] = test: as above; conditions: 0.01-10 μM for 5 days
TGase 1 transcript = test: qPCR of TGases mRNA in mouse scleral fibroblasts after muscarinic agents; conditions: 0.01-10 μM for 5 days, qPCR normalized to GAPDH
Method: (§6) P2 cultured mouse scleral fibroblasts were treated with atropine or carbachol at different concentrations of 0.01 μM, 0.1 μM, […], 5 μM and 10 μM for 5 days. Following 5 days of treatment, the total RNA was extracted from these cells and TGases transcript level was quantified via qPCR analysis. Height of bars show the means of three independent samples and error bars represent standard deviation. Values are normalized against GAPDH house keeping genes.
as §2
(§7) Total RNA was isolated from cultured human and mouse scleral fibroblasts using TRIzol reagent (Invitrogen life technologies, USA) in accordance with the manufacturer's instructions Chomczynski P, Sacchi N., “Single-step method of RNA isolation by acid guanidinium thiocyanate-phenol-chloroform extraction”, Anal. Biochem. 1987 April; 162(1):156-9. Genomic DNA was removed by digestion with DNase I (Amp Grade; Invitrogen-Gibco) for 15 minutes at room temperature. One microgram of total RNA was reverse-transcribed with random hexamers by using a first-strand cDNA synthesis kit (Invitrogen-Gibco). qPCR was performed in a 384-well plate format on an Roche 480 LightCycler Detection System (Roche Applied Science, Mannheim, Germany) with efficiency corrected software 4.0. PCR was performed using 50 ng of cDNA of each sample. The pre-validated hydrolysis probes for TG-2 were from human and mouse universal probe library (Roche, CA) and the primers for human and mouse are shown in Table 3. GAPDH Internal Standard (Roche) was used as an endogenous control. To standardize and evaluate scleral gene expression, aliquots of the same cDNA (50 ng) preparation were used as templates in all PCR reactions. The data was analyzed by comparative CT (MCT) method as previously described in Brink N, Szamel M, Young A R, Wittern K P, Bergemann J., “Comparative quantification of IL-1, IL-10, Il-10r, TNF and IL-7 mRNA levels in UV-irradiated human skin in vivo”, Inflamm Res. 2000 June; 49(6):290-6.

TGase 5 transcript = test: as above; conditions: 0.01-10 μM for 5 days, qPCR normalized to GAPDH
Method: as §6, §2, §7

TGase-3 transcript = test: as above; conditions: 0.01-10 μM for 5 days, qPCR normalized to GAPDH
Method: as §6, §2, §7

[8] = test system: TGase 2 (TGM-2) transcript; test: as above; conditions: 0.01-10 μM for 5 days, qPCR normalized to GAPDH
Method: as §6
Murine scleral derived fibroblasts were cultured to passage 2 and treated to exogenous atropine or carbachol at 0.01 μM, 0.1 μM, 1 μM, 5 μM and 10 μM for 5 days. Following 5 days of treatment, the total RNA was extracted from these cells and RT-qPCR performed to determine transcript levels of TGM-2. The levels were normalized to GAPDH internal control. […] Height of bars or symbols represents mean and error bars SD. *: p<0.05 and **: p<0.001.
All cells used in examples described herein were between passages 2-4. Passaged cells were plated at a concentration of 2×10^5/mL into 6 well plates containing DMEM with 10% FBS. The cells were seen to attach to the bottom of the culture wells after 4 hours. […] The supernatant was poured into a new eppendorf tube and cell concentrations were determined using the Dc Protein assay Kit (Bio-Rad, MA). […] Cell lysate was collected for relative quantitative (q) PCR and protein analysis at day 5. […]

TG-2 [9] = test: TG-2 colorimetric microassay (transamidase activity) in lysate of treated mouse scleral fibroblasts; conditions: murine scleral derived fibroblasts, 0.01-10 μM for 5 days

| TGase-3 transcript level (TGase-3 transcript) | transamidase (cross-linking) activity of TG-2 (TG-2 [9]) | Compound | effect of the higher concentrations on SF cells (cultured SF cells) | concentration at which effective on SF cell growth (human SF) [µM] | concentration at which effective on SF cell growth (mouse SF) [µM] | TG-1 protein level (TG-1 [1]) | TG-3 protein level (TG-3 [2]) | TG-5 protein level (TG-5 [3]) | TG-1 protein level (TG-1 [4]) | TG-2 protein level (TG-2 [5]) | TG-3 protein level (TG-3 [6]) | TG-5 protein level (TG-5 [7]) | TGase 1 transcript level (TGase 1 transcript) | TGase 5 transcript level (TGase 5 transcript) | TGase 2 (TGM-2) transcript level [8] |
| --- | --- | --- | --- | --- | --- | --- | --- | --- | --- | --- | --- | --- | --- | --- | --- |
| – | – | CN(C)c1cccc2c(S(=O)(=O)NCCCCCN)cccc12 [MDC, Monodansyl caderverine] | cell death and morphological change | 10 | 50 | – | – | – | – | – | – | – | – | – | – |
| opposite findings | opposite effects | C[N+](C)(C)CCOC(N)=O [carbachol] | – | – | – | the converse was true; also recorded: increased | the converse observed; also recorded: decreased | the converse was true; also recorded: increased | the converse was true; also recorded: increased | increased; also recorded: opposite effect | the converse observed; also recorded: decreased | the converse was true; also recorded: increased | increased only by relatively higher concentrations | increased only by relatively higher concentrations | opposite effect; also recorded: opposite findings |
